Experimental data taken from patent US20250313535A1, “ALPHA 4 BETA 7 INTEGRIN MODULATORS AND USES THEREOF” (DICE MOLECULES SV, INC., priority 2022, published 2025).
Read-outs that look alike come from different tables or passages of the source.

What was measured:
α4β1 integrin = α4β1 integrin (Homo sapiens (Human), UniProt P05556+P13612); experiment: Integrin Adhesion Assay: Protocol 5 (VCAM-coated plate, RPMI-8866 cells with stable LOF mutation of the ITGB7 gene); type: cell-based
Description: (§1) Integrin Adhesion Assay Using Genetically Modified Cells Generating Stable Cell Lines with ITGB1 or ITGB7 Knockout (Protocol 4 and Protocol 5)
(§2) To obtain subclones of the RPMI-8866 cell line (Sigma-Aldrich, St. Louis, MO) that were individually deficient in either integrin β1 or integrin β 7, CRISPR/Cas9 technology was employed (PMID: 30108345). Specifically, a Neon™ Transfection System System 10 μL Kit and the Neon™ Transfection device (both from ThermoFisher Scientific) were used.
(§3) The protocol was performed following the manufacturer instructions, described in https://www.thermofisher.com/document-connect/document-connect.html?url=https % 3A%2F%2F assets.thermofisher.com%2FTFS-Assets%2FLSG%2Fmanuals%2FMAN0017066_TrueCut Cas9_Protein_v2_UG.pdf, which is incorporated by reference herein in its entirety.
(§4) RPMI-8866 cells were transferred to a flask the day before transfection, at a confluence of 5×10^5 cells/mL. The cells were washed with PBS and resuspended in buffer R (Neon™ Transfection System, Invitrogen) to 2×10^5 cells/10 uL for each reaction. The TrueCut™ HiFi Cas9 Protein (1250 ng per reaction) was mixed with TrueGuide™ sgRNA (7.5 pmoles each/pool of 3 sequences, table 1) (ThermoFisher Scientific). This mix was combined with the RPMI-8866 cells and electroporated on the Neon system at 1700V/20 ms/1 pulse. Transfected cells were allowed to recover in 500 μL pre-warmed cRMPI media (RPMI-1640 media with 10% FBS, 100 U/ml Penicillin-Streptomycin) at 37° C., 5% CO2 for 24 hours. At that time, an extra 500 μL of pre-warmed cRMPI media was added, and cells were incubated for another 24 hours.
(§5) For flow cytometry analysis, 100 μL of the transfected cells were collected and stained with anti-itga4 (Clone: 9F10, PE, BD Pharmingen™), anti-itgb 1 (Clone: (TS2/16), Super Bright 436, eBioscience), anti-itgb7 (Clone: FIB504, Brilliant Violet 650, BD Pharmingen™) and viability dye (LIVE/DEAD™ Fixable Green Dead Cell Stain, Invitrogen™). An Attune NxT Flow Cytometer was used to analyze the CRISPR-transfected cells. The flow cytometry results were analyzed using FlowJo™ v10.8.1 Software (BD Life Sciences). Fluorescence minus one (FMO) controls were used to select appropriate gates for data analysis.
(§6) To generate an individual clones of cells deficient in either ITGB7 or ITGB1 by limiting dilution assay, the transfected cells were resuspended at 5 cells/mL and seeded in 384 well plates. Outgrowth of clones was monitored using a microscope, and 24 clones were transferred for expansion. Expression of either integrin was verified by flow cytometry in each of the clones. One clone of each integrin b7 or the integrin b1 knockout was chosen, expanded and aliquots were frozen in vapor phase liquid nitrogen.
Integrin Adhesion Assay: Protocol 5
VCAM (R&D Systems, 0.1 ug) was diluted in 50 μL PBS, added to each well of an opaque ELISA plate (Thermo), and incubated overnight at 4° C. Coated plates were washed once with PBS and then blocked with 200 μL of assay buffer (10 mM HEPES, 150 mM NaCl, 1 mM MnCl2, 0.1 mM CaCl2), 1% BSA) for 1 hour at 37° C. and 5% CO2. After incubation, buffer was aspirated from the plates and 50 μL of fresh assay buffer was added. Compounds were added by compounds dispenser (Tecan) and DMSO concentration was normalized to 1% across each plate. 50 μL of RPMI-8866 cells with a stable LOF mutation of the ITGB7 gene (2×10^6 per mL) were added to each well and the plates were incubated for 1 hour at 37° C. and 5% CO2. After incubation, plates were allowed to cool to RT for 10 minutes before being washed four times in assay buffer by an automated plate washer (BioTek). After washing, 100 μL of a 1:1 mixture of assay buffer and CellTiter GLO 2.0 reagent (Promega) were added to each well. Plates were mixed for 2 minutes at 1000 rpm and then allowed to incubate an additional 10 minutes before reading out luminescence on a Tecan Spark plate reader. […]

α4β7 integrin = α4β7 integrin (Homo sapiens (Human), UniProt P13612+P26010); experiment: Integrin Adhesion Assay: Protocol 4 (MAdCAM-coated plate, RPMI-8866 cells with stable LOF mutation of the ITGB1 gene); type: cell-based
Sequence of α4β7 integrin (P13612 34-1032): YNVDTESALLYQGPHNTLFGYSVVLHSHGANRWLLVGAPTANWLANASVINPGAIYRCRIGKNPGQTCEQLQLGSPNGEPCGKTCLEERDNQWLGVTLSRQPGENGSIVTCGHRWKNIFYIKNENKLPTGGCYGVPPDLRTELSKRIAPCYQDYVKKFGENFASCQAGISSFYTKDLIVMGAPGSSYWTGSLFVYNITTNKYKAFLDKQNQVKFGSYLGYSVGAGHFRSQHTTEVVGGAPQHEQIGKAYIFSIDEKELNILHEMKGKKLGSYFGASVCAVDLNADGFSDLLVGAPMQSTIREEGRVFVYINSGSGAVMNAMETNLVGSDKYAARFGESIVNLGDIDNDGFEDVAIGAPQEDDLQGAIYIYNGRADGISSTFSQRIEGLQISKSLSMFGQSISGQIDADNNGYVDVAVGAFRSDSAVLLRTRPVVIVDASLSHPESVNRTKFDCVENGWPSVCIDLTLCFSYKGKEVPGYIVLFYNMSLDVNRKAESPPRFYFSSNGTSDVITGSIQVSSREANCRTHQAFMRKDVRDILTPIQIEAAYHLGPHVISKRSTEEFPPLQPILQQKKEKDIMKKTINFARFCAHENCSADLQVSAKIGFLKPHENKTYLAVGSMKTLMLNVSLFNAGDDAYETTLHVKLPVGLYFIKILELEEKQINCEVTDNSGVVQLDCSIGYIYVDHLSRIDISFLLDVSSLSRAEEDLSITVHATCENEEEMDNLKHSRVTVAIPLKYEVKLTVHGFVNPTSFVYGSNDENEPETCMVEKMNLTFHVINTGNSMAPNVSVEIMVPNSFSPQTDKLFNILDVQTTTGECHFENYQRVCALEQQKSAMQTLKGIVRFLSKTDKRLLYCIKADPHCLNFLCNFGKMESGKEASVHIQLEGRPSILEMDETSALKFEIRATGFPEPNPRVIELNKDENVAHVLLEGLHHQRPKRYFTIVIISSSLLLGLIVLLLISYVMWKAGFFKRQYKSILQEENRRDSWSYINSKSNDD
Sequence of α4β7 integrin (P26010 20-798): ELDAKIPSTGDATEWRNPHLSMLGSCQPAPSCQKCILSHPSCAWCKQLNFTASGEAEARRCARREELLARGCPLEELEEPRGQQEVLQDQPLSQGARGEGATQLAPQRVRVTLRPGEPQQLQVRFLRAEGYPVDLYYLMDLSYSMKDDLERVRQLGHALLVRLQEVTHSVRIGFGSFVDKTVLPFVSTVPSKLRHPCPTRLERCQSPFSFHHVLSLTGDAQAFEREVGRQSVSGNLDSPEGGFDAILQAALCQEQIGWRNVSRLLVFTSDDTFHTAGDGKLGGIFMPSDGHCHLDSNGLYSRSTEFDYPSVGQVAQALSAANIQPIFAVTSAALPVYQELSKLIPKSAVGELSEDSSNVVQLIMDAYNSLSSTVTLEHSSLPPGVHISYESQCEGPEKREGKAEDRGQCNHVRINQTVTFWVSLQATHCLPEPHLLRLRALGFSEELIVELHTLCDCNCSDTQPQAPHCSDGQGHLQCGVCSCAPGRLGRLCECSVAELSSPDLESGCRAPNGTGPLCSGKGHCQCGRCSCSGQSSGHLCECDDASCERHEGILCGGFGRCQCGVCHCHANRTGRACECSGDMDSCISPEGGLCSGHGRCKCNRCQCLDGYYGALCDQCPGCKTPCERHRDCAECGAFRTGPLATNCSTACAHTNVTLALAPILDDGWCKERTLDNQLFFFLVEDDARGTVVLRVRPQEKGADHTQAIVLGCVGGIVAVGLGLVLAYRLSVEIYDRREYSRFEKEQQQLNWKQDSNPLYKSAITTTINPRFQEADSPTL
Description: as §1, §2, §3, §4, §5, §6
Integrin Adhesion Assay: Protocol 4
MAdCAM (R&D Systems, 0.1 ug) was diluted in 50 μL PBS, added to each well of an opaque ELISA plate (Thermo), and incubated overnight at 4° C. Coated plates were washed once with PBS and then blocked with 200 μL of assay buffer (10 mM HEPES, 150 mM NaCl, 1 mM MnCl2, 0.1 mM CaCl2), 1% BSA) for 1 hour at 37° C. and 5% CO2. After incubation, buffer was aspirated from the plates and 50 μL of fresh assay buffer was added. Compounds were added using a compounds dispenser (Tecan), and DMSO concentration was normalized to 1% across each plate. 50 μL of RPMI-8866 cells with a stable loss of function (LOF) mutation of the ITGB1 gene (2×10^6 per mL) were added to each well and the plates were incubated for 1 hour at 37° C. at a CO2 concentration of 5%. After incubation, plates were allowed to cool to RT for 10 minutes before being washed four times in assay buffer by an automated plate washer (BioTek). After washing, 100 μL of a 1:1 mixture of assay buffer and CellTiter GLO 2.0 reagent (Promega) were added to each well. Plates were mixed for 2 minutes at 1000 rpm and then allowed to incubate an additional 10 minutes before reading out luminescence on a Tecan Spark plate reader. […]

[1] = Protocol 5, RPMI-8866 cells with LOF mutation of ITGB7, VCAM, read-out: Mean IC50 α4β1 KO
[2] = Protocol 4, RPMI-8866 cells with LOF mutation of ITGB1, MAdCAM, read-out: Mean IC50 α4β7 KO
[3] = RPMI-8866 cells with stable LOF mutation of the ITGB7 gene, read-out: Mean IC50 α4β1 KO^b
[4] = RPMI-8866 cells with stable LOF mutation of the ITGB1 gene, read-out: Mean IC50 α4β7 KO^a

Sequence of α4β1 integrin (P13612 34-1032): as the sequence (P13612 34-1032) above
Sequence of α4β1 integrin (P05556 21-798): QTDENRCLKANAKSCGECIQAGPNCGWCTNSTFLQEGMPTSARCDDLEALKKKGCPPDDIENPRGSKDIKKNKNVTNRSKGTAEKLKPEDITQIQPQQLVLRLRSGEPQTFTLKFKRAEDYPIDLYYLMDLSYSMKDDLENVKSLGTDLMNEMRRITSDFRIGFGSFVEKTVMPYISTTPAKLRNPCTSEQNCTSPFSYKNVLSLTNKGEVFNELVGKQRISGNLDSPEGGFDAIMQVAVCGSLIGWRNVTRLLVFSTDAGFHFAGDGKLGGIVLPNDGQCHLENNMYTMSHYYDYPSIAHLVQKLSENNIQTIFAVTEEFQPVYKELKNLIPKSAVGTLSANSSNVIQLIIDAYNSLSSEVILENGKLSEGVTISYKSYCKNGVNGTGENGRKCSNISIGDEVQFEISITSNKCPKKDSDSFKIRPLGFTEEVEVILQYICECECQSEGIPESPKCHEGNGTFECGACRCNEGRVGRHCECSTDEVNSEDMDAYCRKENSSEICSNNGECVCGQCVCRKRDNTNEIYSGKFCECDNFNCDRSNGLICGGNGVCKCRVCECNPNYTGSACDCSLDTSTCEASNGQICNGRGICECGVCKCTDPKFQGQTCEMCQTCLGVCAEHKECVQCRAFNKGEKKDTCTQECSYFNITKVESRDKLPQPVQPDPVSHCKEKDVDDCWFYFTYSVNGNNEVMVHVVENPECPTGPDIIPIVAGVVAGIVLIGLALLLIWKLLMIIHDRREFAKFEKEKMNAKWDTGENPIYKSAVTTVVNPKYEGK

| IC50 (α4β7 integrin; [2]) [nM] | IC50 (α4β7 integrin; [4]) [nM] | Compound | also measured |
| --- | --- | --- | --- |
| < 10 | – | O=C(O)[C@H](Cc1cccc2c(-c3ncc(CN4CCC5(CC4)CC5)c4ccccc34)cccc12)NC(=O)C1(C(F)(F)F)CCN(CC(F)(F)F)CC1 [Compound 883] | IC50 (α4β1 integrin; [1]): > 1000 nM |
| < 10 | – | COc1ccc(CCN2CCC(F)(F)CC2)c(OC)c1-c1cccc2c(C[C@H](NC(=O)C3(C(F)(F)F)CCN(CC(F)(F)F)CC3)C(=O)O)cccc12 [Compound 958] | IC50 (α4β1 integrin; [1]): 100 to 1000 nM |
| < 10 | – | CC(C)Oc1cc(CN2CCCCC2)cnc1-c1cccc2c(C[C@H](NC(=O)C3(C(F)(F)F)CCN(CC(F)(F)F)CC3)C(=O)O)cccc12 [Compound 894] | IC50 (α4β1 integrin; [1]): 100 to 1000 nM |
| 10 to 100 | – | O=C(O)[C@H](Cc1cccc2c(-c3cccc4c(CN5CCCCC5)cncc34)cccc12)NC(=O)C1(C(F)(F)F)CCN(CC(F)(F)F)CC1 [Compound 803] | IC50 (α4β1 integrin; [1]): > 1000 nM |
| – | 10 to 100 | CC(C)(C)C1CCN(Cc2cccc3c(-c4cccc5c(C[C@H](NC(=O)C6(C(F)(F)F)CCN(CC(F)(F)F)CC6)C(=O)O)cccc45)nccc23)CC1 [Compound 659] | IC50 (α4β1 integrin; [3]): > 1000 nM |
| < 10 | – | CC1CCN(Cc2ccc3c(c2)c(C(F)(F)F)c(-c2cccc4c(C[C@H](NC(=O)C5(C(F)(F)F)CCN(CC(F)F)CC5)C(=O)O)cccc24)c(=O)n3C)CCC1(F)F (some centres unmarked) [Compound 840] | IC50 (α4β1 integrin; [1]): 10 to 100 nM |
| < 10 | – | Cc1cc(C2CCCN(C)C2)cnc1-c1cccc2c(C[C@H](NC(=O)C3(C(F)(F)F)CCN(CC(F)(F)F)CC3)C(=O)O)cccc12 (some centres unmarked) [Compound 760] | – |
| < 10 | – | COc1ccc(CN2CCCCC2)cc1-c1cccc2c(C[C@H](NC(=O)C3(C(F)(F)F)CCN(CC(F)F)CC3)C(=O)O)cccc12 [Compound 937] | – |
| < 10 | – | O=C(O)[C@H](Cc1cccc2c(-c3nccc4ccc(CCCN5CCC6(CC5)CC6)cc34)cccc12)NC(=O)C1(C(F)(F)F)CCN(CC(F)(F)F)CC1 [Compound 743] | – |
| < 10 | – | COc1ccc(CN2CCC(C)(C)CC2)cc1-c1cccc2c(C[C@H](NC(=O)C3(C(F)(F)F)CCN(CC(F)(F)F)CC3)C(=O)O)cccc12 [Compound 941] | – |
| < 10 | – | COc1ccc(CN2CCC(C(F)(F)F)CC2)cc1-c1cccc2c(C[C@H](NC(=O)C3(C(F)(F)F)CCN(CC(F)F)CC3)C(=O)O)cccc12 [Compound 938] | – |
| < 10 | – | COc1cc2c(c(C(F)(F)F)c1-c1cccc3c(C[C@H](NC(=O)C4(C(F)(F)F)CCN(CC(F)(F)F)CC4)C(=O)O)cccc13)CN(C)CC2 [Compound 736] | – |
| < 10 | – | COc1cc(CN2CCC(C(F)(F)F)CC2)cnc1-c1cccc2c(C[C@H](NC(=O)C3(C(F)(F)F)CCN(CC(F)(F)F)CC3)C(=O)O)cccc12 [Compound 889] | – |

Further lines, the molecule ahead of its results:

| Compound | IC50 (α4β7 integrin; [2]) [nM] | IC50 (α4β7 integrin; [4]) [nM] | also measured |
| --- | --- | --- | --- |
| COc1ccc(CN2CCCCC2)c(OC)c1-c1cccc2c(C[C@H](NC(=O)c3c(F)cccc3C#N)C(=O)O)cccc12 [Compound 646] | – | 100 to 1000 | IC50 (α4β1 integrin; [3]): > 1000 nM |
| CC[C@@H]1CCCN1Cc1cnc(-c2cccc3c(C[C@H](NC(=O)C4(C(F)(F)F)CCN(CC(F)F)CC4)C(=O)O)cccc23)c2ccccc12 [Compound 936] | < 10 | – | IC50 (α4β1 integrin; [1]): 100 to 1000 nM |
| CN(Cc1cnc(-c2cccc3c(C[C@H](NC(=O)C4(C(F)(F)F)CCN(CC(F)(F)F)CC4)C(=O)O)cccc23)c2ccccc12)CC(F)F [Compound 922] | 10 to 100 | – | IC50 (α4β1 integrin; [1]): > 1000 nM |
| COc1ccc(CN2CCC[C@@H](F)C2)c(OC)c1-c1cccc2c(C[C@H](NC(=O)c3c(C)cccc3F)C(=O)O)cccc12 [Compound 672] | – | < 10 | IC50 (α4β1 integrin; [3]): 100 to 1000 nM |
| CO[C@H]1C[C@@H](c2cc(F)c(C(=O)N[C@@H](Cc3cccc4c(-c5c(C(F)(F)F)c6ccccc6n(C)c5=O)cccc34)C(=O)O)c(F)c2)N(C)C1 [Compound 466] | – | 100 to 1000 | – |
| O=C(O)[C@H](Cc1cccc2c(-n3cccc(C(F)(F)F)c3=O)cccc12)NC(=O)C1(C(F)(F)F)CCN(CC(F)(F)F)CC1 [Compound 1055] | 100 to 1000 | – | – |
| CC1CC(C)(C(=O)N[C@@H](Cc2cccc3c(-c4c(C(F)(F)F)c5ccccc5n(C)c4=O)cccc23)C(=O)O)CCN1CC(F)(F)F (some centres unmarked) [Compound 528] | – | > 1000 | – |
| COc1c(CN2CCCCC2)ccc(C(F)(F)F)c1-c1cccc2c(C[C@H](NC(=O)c3c(C)cccc3F)C(=O)O)cccc12 [Compound 1022] | 10 to 100 | – | – |
| CCCS(=O)(=O)N1CCC(C(=O)N[C@@H](Cc2cccc3c(-c4c(OC)ccc(CN5CCC(F)(F)CC5)c4OC)cccc23)C(=O)O)(C(F)(F)F)CC1 [Compound 617] | – | 100 to 1000 | – |
| O=C(N[C@@H](Cc1cccc2c(-c3ncc(CN4CCCCC4)c4ccccc34)cccc12)C(=O)O)c1c(F)cccc1F [Compound 678] | – | 10 to 100 | – |
| CC(C)CC1CC(C)(C(=O)N[C@@H](Cc2cccc3c(-c4c(C(F)(F)F)c5ccccc5n(C)c4=O)cccc23)C(=O)O)CCN1CC(F)(F)F (some centres unmarked) [Compound 529] | – | > 1000 | – |
| CC1(C)CCN(Cc2cnc(-c3cccc4c(C[C@H](NC(=O)C5(C(F)(F)F)CCN(C6COC6)CC5)C(=O)O)cccc34)c3ccccc23)CC1 [Compound 686] | < 10 | – | – |
| COc1cccc(CN2CCCCC2)c1-c1cccc2c(C[C@H](NC(=O)c3c(F)cccc3C3CC3)C(=O)O)cccc12 [Compound 541] | – | < 10 | – |
| COC1CN(Cc2cnc(-c3cccc4c(C[C@H](NC(=O)C5(C(F)(F)F)CCN(CC(F)F)CC5)C(=O)O)cccc34)c3ccccc23)C1 [Compound 913] | < 10 | – | – |
| Cn1c(=O)c(-c2cccc3c(C[C@H](NC(=O)C4(C)C5CC4CN(CC(F)(F)F)C5)C(=O)O)cccc23)c(C(F)(F)F)c2ccccc21 (some centres unmarked) [Compound 1048] | 100 to 1000 | – | – |
| COc1ccc(CN2CCCC(F)C2)c(OC)c1-c1cccc2c(C[C@H](NC(=O)c3c(C)cc(C45CCOCC4C5)cc3F)C(=O)O)cccc12 (some centres unmarked) [Compound 663] | – | < 10 | – |
| CO[C@H]1C[C@H](c2cc(F)c(C(=O)N[C@@H](Cc3cccc4c(-c5c(C(F)(F)F)c6ccccc6n(C)c5=O)cccc34)C(=O)O)c(F)c2)N(C)C1 [Compound 467] | – | 100 to 1000 | – |
| O=C(O)[C@H](Cc1cccc2c(-c3nccc4ccc(CCCN5CCC6(CC5)CC6)cc34)cccc12)NC(=O)C1(C(F)(F)F)CCN(CC(F)F)CC1 [Compound 774] | < 10 | – | – |
